Earlier results as cited in patent US7666858B2, “Pharmaceutical composition for treatment of phimosis using topical corticosteroid” (Apsen Farmaceutica S.A., priority 2000, dated 2010).

Columns and labels:
[1] = Lindhagen 1996

| Compound | solubility in alcohol (alcohol) | solubility in water (water) | success [1] [%] |
| --- | --- | --- | --- |
| C[C@H]1C[C@H]2[C@@H]3CCC4=CC(=O)C=C[C@]4(C)[C@@]3(F)[C@@H](O)C[C@]2(C)[C@@]1(O)C(=O)CO [Betamethasone] | partially alcohol-soluble | water-insoluble |  |
| CCC(=O)O[C@]1(C(=O)CCl)[C@@H](C)C[C@H]2[C@@H]3CCC4=CC(=O)C=C[C@]4(C)[C@@]3(F)[C@@H](O)C[C@@]21C [clobetasol propionate] |  |  | 70 |
